The text below walks through data of patent US20240391912A1, “MORPHIC FORMS OF CFT7455 AND METHODS OF MANUFACTURE THEREOF” (C4 THERAPEUTICS, INC., priority 2022, published 2024).

A short description of series [1]: Bulk stability of Compound 5 Form VI and Form VIII at 25° C./60% RH, open container, 1 week (XRPD, HPLC, color). Format: physicochemical. The note with it: listed as Form VIII. As for the experimental part: Compound 5 Form VI and Form VIII were placed at 25° C./60% RH in an open container over 1 week. Samples after the stress were characterized by XRPD and HPLC and inspected for color change.

The nature of series [2]: Solubility of Compound 5 Form VI and Form VIII at 25° C., equilibration for 24 hours (HPLC; XRPD of residual solids). The series is classed as physicochemical. As for the experimental part: 11 mg (for 20 mg/mL target concentration) or 22 mg (for 50-60 mg/mL target concentration) of Compound 5 Form VI and Form VIII (equivalent to 10 mg or 20 mg of anhydrate free base) was weighed into a 4 mL glass vial, respectively. Up to 0.5 mL of potential eluent medium was added. The obtained suspensions/solutions were stirred at 25° C. at 400 rpm for 24 hours and then centrifuged at 25° C. at 14,000 rpm for 5 minutes. The residual solids were characterized by XRPD to determine the physical form. The supernatants (0.1 mL) were evaporated at about 22-25° C./30-60% RH.

Series [3] is described as follows: Characterization of polymorphs and pseudo-polymorphs of Compound 5. Format: physicochemical.
Series [4] is described as follows: Approximate solubility of Compound 5 polymorphs in EtOH:DCM (v:v=1:4). The series is classed as physicochemical. The note with it: EtOH:DCM (v:v = 1:4), 25° C. As for the experimental part:
Four polymorphs (Form V, Form VI, Form VII and Form VIII) were weighed respectively and a suitable amount of solvent mixture EtOH:DCM (v:v=1:4) was added. The obtained samples were stirred at a rate of 400 rpm at 25° C.

Series [5] in a line: Scale-up experiment (200 mg) and characterization of new polymorphs of Compound 1. The series is classed as physicochemical. Particulars: for X-ray diffraction: 3-40° (2 theta), XRPD method 1; for Thermogravimetry weight loss / water corresponding to TGA weight loss: TGA. As for the experimental part:
Scale-up 1: About 200 mg of Compound 1 Form I was dissolved in 10 mL THF/Water (95:5, v:v) at 40° C. […] Compound 1 Form IV was obtained. It was subjected to characterization.
Scale-up 2: About 200 mg of Compound 1 Form I was dissolved in 10 mL THF/Water (95:5, v:v) at 40° C. […] It was subjected to characterization.

A short description of series [6]: Crystallization of Compound 1 at room temperature by slow evaporation (XRPD). The series is classed as physicochemical. Particulars: 25° C./92% RH for 2 days. As for the experimental part: About 20 mg of Compound 1 Form I (free form) was dissolved and filtered by 0.45 μm nylon filter. Obtained solutions were evaporated slowly at ambient condition. Solid residues were examined for their polymorphic form.

Series [7] in a line: Competitive equilibration experiment of Compound 1 Form I and Form IV for 1 week. Format: physicochemical. Particulars: for XRPD / form obtained in competitive equilibration: 1 week; for form obtained in competitive equilibration: 25° C. As for the experimental part: About 10 mg of Compound 1 Form I and 10 mg Compound 1 Form IV were added to 0.8 mL saturated solution in selected solvent. Obtained suspensions were stirred at 400 rpm and 25° C. for 1 week. Solids obtained were separated by filtration and characterized by XRPD.

Series [8] relates to OCI-LY10 human DLBCL intracranial xenografts. The series can be described thus: OCI-LY10 human DLBCL intracranial xenograft study, survival. Particulars: for Median Survival (Days), ± SEM / Survival time extension (%): Rituximab, i.v., QW. On the technique in general: A xenograft is tissue or cells of one species grown in another, often human tumour cells in immunodeficient mice.
Method: Agents were tested in the OCI-LY10 human DLBCL intracranial model. […] Rituximab was administered from day 1 via i.v. once per week. Rituximab was dosed at 10 and 30 mg/kg. Individual mouse was euthanized once its body weight loss was over 20%.
The cells growing in an exponential growth phase were harvested and counted for tumor inoculation.
99 CB17 SCID mice were inoculated by intracranial injection with OCI-LY10 cells (1×10^6) for tumor development.
Tumor inoculation: Intraperitoneally injected avertin at dosage of 240 mg/kg to anaesthetize the CB17 SCID mice. Fixed the head of the anaesthetized mice to the brain solid positioner, sterilized the head skin with 70% alcohol. […] Punched a hole about 2 mm right of the anterior fontanel and 1 mm ahead the coronal on the skull with a 25 G needle. Cell suspensions were mixed and certain amount was sucked into the 5 μL injector slowly to avoid bubble formation. The cells were swapped around the needle with alcohol to avoid extracranial tumor genesis. The needle was stuck vertically into the formed hold and 5 μL of cell suspension containing 1×10^6 OCI-LY10 cells was slowly injected for over 1 minute. The injector was then held for another 1 minute and then pulled back to decrease the drainage of the cells suspension. The skin was closed with tweezers and then sewed. Meloxicam was then injected 30 min after the surgery at dosage of 5 mg/kg to relieve the pain. The animals were kept under monitoring until they were awake.
Animals were grouped for treatment on day 7 after tumor inoculation.
At the time of routine monitoring, the animals were daily checked for any effects of tumor growth and treatments on normal behavior such as mobility, food and water consumption (by looking only), body weight gain/loss (body weights were measured twice weekly), eye/hair matting and any other abnormal effect as stated in the protocol. Death and observed clinical signs were recorded on the basis of the numbers of animals within each subset.

The mark [9] stands for this setting: THF/water (v:v = 1:2.5), 25° C., 24 hours, target conc. 20 mg/mL, listed as Form VIII.

Converted amounts (≈) assume the structure as drawn.

For the compound `O=C1CCC(N2C(=O)c3cccc4c(Cc5ccc(CN6CCOCC6)cc5)ccc2c34)C(=O)N1` (racemic) [Compound 5 Form VIII], in series [1], the “bulk stability, physical (form)” value is listed as “converted to Form V”. The “Bulk (HPLC) Purity” value in series [1] (solid state, initial purity 93.1% (Form VI), 95.6% (Form VIII)) is recorded as 95.6%. For the same compound, the “Bulk (XRPD)” value in series [1] (solid state) is recorded as “Form V”. Moreover, the solubility – broadly, the dissolved amount per volume that the medium holds – is 39 mg/mL (≈ 83.1 mM) in series [2] (EtOH/DCM (v:v = 1:4), 25° C., 24 hours, target conc. 50-60 mg/mL, LOQ 0.8 μg/mL, listed as Form VIII); 1 mg/mL (≈ 2.13 mM) in series [2] (THF/IPA (v:v = 1:2), 25° C., 24 hours, target conc. 20 mg/mL, listed as Form VIII); 0.5 mg/mL (≈ 1.06 mM) in series [2] (setting [9]); around 39 mg/mL (≈ 83.1 mM) in series [2] (in EtOH/DCM (v:v=1:4), about 25° C., 24 h, listed as Form VIII); 30 to 40 mg/mL in series [2] (in MeOH:DCM (v:v=1:2) and EtOH:DCM (v:v=1:4), 25° C. for 24 h, listed as Form VIII). Besides, the “physical form after solubility test” value in series [2] (EtOH:DCM (v:v=1:4), 25° C., 24 h) is “Physical mixture of Form V and Form VI”; in series [2] (MeOH:DCM (v:v=1:2) and THF:water (v:v=1:2.5), 25° C., 24 h), “converted to Form V”; in series [2] (THF:2-propanol (v:v=1:2) and THF:Heptane (v:v=1:2), 25° C., 24 h) it was “converted to Form VI”. For the same compound, the “XRPD of residual solids” value is “Form V” in series [2] (MeOH/DCM (v:v = 1:2), 25° C., 24 hours, target conc. 50-60 mg/mL) and “Form V” in series [2] (setting [9]). The “Dehydration and evaporation of solvent from (by DSC)” value in series [3] (DSC) was “about 8° C.;”. The “Enthalpy (by DSC)” value in series [3] (DSC, listed as Form VIII) worked out at 105 J/g. In addition, the “Melting onset Tonset (by DSC)” value in series [3] (DSC, listed as Form VIII) is “Tonset 231.4° C.,”. Besides, in series [3] (at 200° C.), the “Weight loss (by TGA)” value worked out at 4.7% at 200 °C. Further, the “Residual ion (by IC): Br−” value in series [3] (listed as Form VIII) was “Br^−: 0.01 equiv”. Moreover, the “Residual ion (by IC): Cl−” value in series [3] (listed as Form VIII) is recorded as “Cl^−: 0.005 equiv.;”. Moreover, the “Residual ion (by IC): Li+” value in series [3] (listed as Form VIII) is “Li^+: 0.04 equiv.;”. Also, the “Residual ion (by IC): Na+” value in series [3] (listed as Form VIII) is given as “Na^+: 0.01 equiv”. Besides, the “Approximate solubility (visual appearance)” value is given as “Few solids” in series [4] (concentration 10 mg/mL, listed as Form VIII) and “Few solids” in series [4] (concentration 20 mg/mL, listed as Form VIII).
As to `O=C1CCC(N2C(=O)c3cccc4c(Cc5ccc(CN6CCOCC6)cc5)ccc2c34)C(=O)N1` (racemic) [Compound 5 Form VII], the “Residual solvent (by 1H-NMR): NMP” value in series [3] (2 unknown peaks) is 1.6 equiv. NMP;. Further, the “Approximate solubility (visual appearance)” value in series [4] (concentration 10 mg/mL, listed as Form VII) is on record as “Suspension”; in series [4] (concentration 20 mg/mL, listed as Form VII), “Suspension”.
Turning to `O=C1CC[C@H](N2C(=O)c3cccc4c(Cc5ccc(CN6CCOCC6)cc5)ccc2c34)C(=O)N1` [Compound 1 Form II, (S)-3-(6-(4-(morpholinomethyl)benzyl)-2-oxobenzo[cd]indol-1(2H)-yl)piperidine-2,6-dione], the “Stoichiometry: MeOH” value in series [5] (1H-NMR) was found to be 1.0 equiv. Further, the “Stoichiometry: DCM” value in series [5] (1H-NMR, listed as Form II) was 0.3% DCM and. The X-ray diffraction entry in series [5] (listed as Form II) is recorded as “Crystalline”. Further, the “Form change at 25° C./92% RH” value in series [5] (25° C./92% RH for 2 days) is on record as “No form change”. In addition, the “DSC: Methanol desolvation” value in series [5] (DSC, 10° C./min) was “at 103.1 °C”. Besides, the Thermogravimetry weight loss result in series [5] (10° C./min, at 125° C.) is listed as “About 7.1%”. Further, in series [6], the “Notes (form stability under humidity)” value is reported as “No form change at 25° C./92% RH”.
Take `O=C1CC[C@H](N2C(=O)c3cccc4c(Cc5ccc(CN6CCOCC6)cc5)ccc2c34)C(=O)N1` [Compound 1 Form III, (S)-3-(6-(4-(morpholinomethyl)benzyl)-2-oxobenzo[cd]indol-1(2H)-yl)piperidine-2,6-dione]: the X-ray diffraction entry in series [5] (listed as Form III) is on record as “Crystalline”. In series [5] (10° C./min, at 120° C.), the Thermogravimetry weight loss entry is listed as “About 5.8%”. In addition, in series [5] (10° C./min, listed as Form III), the “water corresponding to TGA weight loss” value is 120 °C (1.5 equiv.
As for `O=C1CC[C@H](N2C(=O)c3cccc4c(Cc5ccc(CN6CCOCC6)cc5)ccc2c34)C(=O)N1` [Compound 1 Form IV, (S)-3-(6-(4-(morpholinomethyl)benzyl)-2-oxobenzo[cd]indol-1(2H)-yl)piperidine-2,6-dione], the X-ray diffraction entry in series [5] (listed as Form IV) is given as “Crystalline”. In addition, in series [5] (10° C./min, at 105° C.), the Thermogravimetry weight loss entry is on record as “About 1.3%”. In addition, the “water corresponding to TGA weight loss” value in series [5] (10° C./min, listed as Form IV) was 105 °C (0.4 equiv. Further, the “stability of the form” value in series [7] (THF/water systems with high water activity) was “stable”.
Regarding `O=C1CC[C@H](N2C(=O)c3cccc4c(Cc5ccc(CN6CCOCC6)cc5)ccc2c34)C(=O)N1` [Form I + Form IV], the XRPD entry in series [7] (THF/Water (63.9:36.1, v:v), a.w. 1.0, 25° C.) is “Form IV”; in series [7] (THF/Water (86.9:13.1, v:v), a.w. 0.8, 25° C.), “Form IV”; in series [7] (THF/Water (92.3:7.7, v:v), a.w. 0.6, 25° C.), “Form IV”; in series [7] (THF/Water (97.0:3.0, v:v), a.w. 0.3, 25° C.), “Form I”; in series [7] (THF/Water (98.1:1.9, v:v), a.w. 0.2, 25° C.), “Form I”; in series [7] (THF/Water (99.1:0.9, v:v), a.w. 0.1, 25° C.) it was “Form I”.
`O=C1CC[C@H](N2C(=O)c3cccc4c(Cc5ccc(CN6CCOCC6)cc5)ccc2c34)C(=O)N1` [Form I and Form IV]: the “form obtained in competitive equilibration” value is “physical mixtures of Form I and Form IV” in series [7] (DMSO/water system, all selected water activity mixtures); “Form I (anhydrate)” in series [7] (THF/water system, a.w.≤0.3); “Form IV (hydrate)” in series [7] (THF/water system, water activity (a.w.)≥0.6).
On to “rituximab: CD20 inhibitor; targeted antibody”, for which the “Median Survival (Days), ± SEM” value in series [8] (10 mg/kg) was 17.00 ± 0.46 days; in series [8] (30 mg/kg), 16.00 ± 0.94 days. Also, the “Survival time extension (%)” value in series [8] (10 mg/kg) is recorded as 21.4%; in series [8] (30 mg/kg), 14.3%. For the same compound, the “extension of survival time” value in series [8] (rituximab 10 mg/kg i.v. once per week, p=0.001) was found to be 21.4%; in series [8] (rituximab 30 mg/kg i.v. once per week, p=0.085), 14.3%.
